Consider three compounds from patent US6897227B2, “Prodrugs of proton pump inhibitors” (Winston Pharmaceuticals, Inc., priority 2002, dated 2005).

Data set [1] in a line: Aqueous solubility (water / distilled water). Format: physicochemical. The note with it: free carboxylic acids. The source says:
A further significant advantage of the proton pump inhibitor prodrugs of the present invention relative to the proton pump inhibitor prodrugs disclosed in U.S. Pat. No. 6,093,734, 6,559,167 and PCT Publication WO 00109498 and to all other prior art is their increased solubility.

The nature of data set [2]: Solubility in phosphate buffered saline buffer of pH 7.4 at 37° C. The format is physicochemical. The note with it: aqueous buffer, sodium salts, phosphate buffered saline buffer pH 7.4, read-out: Solubility at 37° C. Conc. How it is done:
The solubility of the sodium salts of certain exemplary compounds of the present invention in a phosphate buffered saline buffer of pH 7.4 (50 mM sodium phosphate, 10 mM KCl, 0.1 M NaCl) and also in a more acidic Britton Robinson buffer of pH 3 (40 mM acetic acid, 40 mM phosphoric acid, 40 mM boric acid, 36 mM NaOH, and 19.6 mg/ml KCl) was also evaluated. […] The tested compounds were much less soluble little in the Britton Robinson buffer of pH 3, but still more soluble than the prior art compounds (a) through (f). This is understandable in view of the fact that in the buffer of pH 7.4 the compounds of the invention form a sodium salt, whereas in the buffer of pH 3 the compounds are less soluble free carboxylic acids. Thus, a solution of a sodium or other pharmaceutically acceptable salt of the compounds of the invention, or stated in an other way the compounds of the invention at pH 7 or above are highly soluble and therefore suitable for administration by intravenous injection.

A short description of data set [3]: Stability in plasma at 37° C. (gradient HPLC-UV), rat plasma. The format is in vitro ADME. The procedure: Exemplary test compounds (prodrugs) of the invention were incubated in plasma at 37° C., and the concentration of the compounds and also of the corresponding proton pump inhibitor compounds (PPI) were determined by a gradient HPLC-UV method. Although the half-lives of test compounds in plasma varies depending on their structure, nevertheless it is apparent that in plasma the compounds of the invention are converted into the corresponding proton pump inhibitor at a rate faster than the hydrolysis rate of the compound at neutral or near neutral pH.

In data set [4] the test system is histamine and carbachol-stimulated gastric acid secretion. In words: Inhibition of gastric acid secretion of the conscious male rat, oral administration. The note with it: sodium salt; for inhibition in vivo at 40 µmol/kg: 40 μmole/kg, read-out: % inhibition of gastric acid secretion between 3-5 hours after administration. The format is in vivo, rat (Sprague-Dawley). The procedure:
Male rats (the Sprague-Dawley strain) were used in this experiment. OMEPRAZOLE sodium salt or LANSOPRAZOLE sodium salt (20 mg) was suspended in 10 ml of 0.1 N NaHCO3. 40 mg of each of the sodium salts of Compound 1, Compound 2, Compound 3, Compound 4, Compound 6 Compound 9, Compound 12, mixture (1:1) of Compound 16 and 17, mixture (1:1) of Compound 18 and 19, mixture (1:1) of Compound 20 and 21, mixture (1:1) of Compound 22 and 23, Compound 27, mixture (1:1) of Compound 34 and 35, and Compound 36 were dissolved in 10 ml of 50 mM sodium phosphate buffer, pH 7.4. The doses administered to the rats were as follows (μmole per kg body weight of the rat): OMEPRAZOLE (10 μmole/kg), LANSOPRAZOLE (10 μmole/kg), Compound 120 μmole/kg, Compound 2 40 μmole/kg, Compound 320 μmole/kg, Compound 420 μmole/kg, Compound 620 μmole/kg, Compound 940 μmole/kg, Compound 1240 μmole/kg, mixture (1:1) of Compound 16 and 17 40 μmole/kg, mixture (1:1) of Compound 18 and 19 40 μmole/kg, mixture (1:1) of Compound 20 and 21 40 μmole/kg, mixture (1:1) of Compound 22 and 23 40 μmole/kg, Compound 27 40 μmole/kg, mixture (1:1) of Compound 34 and 35 40 μmole/kg, and Compound 3640 μmole/kg. These drug solutions were orally administered.
(§1) 3 hours after administration the abdomen of the rat was incised and the pylorus was ligated under light ether anethesia. Histamine (30 mg/kg) and carbachol (30 μg/kg) were subcutaneously injected for acid stimulation. Immediately the abdomen was closed. Two hours later, the esophagus was ligated and the stomach was removed. The gastric juice was collected and acid output was quantified by titration using 0.1 N NaOH solution. As a control experiment, 1 ml of 50 mM phosphate buffer (pH 7.4) solution was orally administrated without any prodrug or proton pump inhibitory drug. Acid output was quantified by same method as described above, showing maximum histamine and carbachol-stimulated gastric acid secretion. Percentage inhibition was calculated from the fractional responses elicited by the test compound and a control experiment.

A further data set has as its system gastric acid secretion. In words: Inhibition of gastric acid secretion in rat, intravenous administration. Conditions: 5 μmole/kg. The format is in vivo. The procedure: as §1
Inhibition of gastric acid secretion after intravenous administration of compounds of the invention was also examined. Lansoprazole sodium salt (20 mg) was dissolved in 40% hydroxypropyl-beta-cyclodextrin. The compounds of the invention used in this experiment were dissolved in phosphate buffered saline solution of pH 7.4. Each compound was injected intravenously at a dose of 5 μmole/kg or 10 μmole/kg (μmole per kg body weight of rat) as indicated in Table 4 below. Between 2 to 4 hours after injection gastric juice was collected, and the percentage of inhibition was determined as described above.

Data set [5] is described as follows: Stability in Britton Robinson buffers (hydrolysis of prodrug to PPI, HPLC). Conditions: Britton Robinson buffer, pH 7.
Description: (§2) The stability of Compounds 1, 2, 3, 4 and 5 of the invention in aqueous solution (0.1 mg/mL) was investigated in Britton Robinson buffers of pH 3, pH 7, and pH 9, respectively. A solution of 0.1 mg/mL concentration of each compound in each buffer was prepared and the solutions were stored at 37° C. for 1 h and then the concentrations of test compounds were determined by HPLC.
For data set [6] the following is noted: buffer.
Description: as §2

What is called solubility is the dissolved amount per volume that the medium holds. As usually defined, the half-life is the time needed for the level to fall by half in the phase considered. On to `Cc1c(OCC(F)(F)F)ccnc1C[S+]([O-])c1nc2ccccc2n1S(=O)(=O)c1ccc(OCC(=O)[O-])cc1.[Na+]` (centres unmarked) [Compound 2, (4-{2-[3-Methyl-4-(2,2,2-trifluoro-ethoxy)-pyridin-2-ylmethanesulfinyl]-benzimidazole-1-sulfonyl}-phenoxy)acetic acid sodium salt], for which the solubility in data set [1] is above 0.1 mg/mL; in data set [2] it was above 50 mg/mL. Besides, the half-life in data set [3] was 18 min. Besides, the inhibition in vivo at 40 µmol/kg in data set [4] came out at 64.2 ± 11.3%. The “% inhibition of gastric acid secretion between 2-4 hours after i.v. administration” value with gastric acid secretion was 63.1 ± 31.7%. In addition, in data set [5], the half-life at 0.1 mg/mL was above 50 h.

Consider `CCC(Oc1ccc(S(=O)(=O)n2c([S+]([O-])Cc3nccc(OCC(F)(F)F)c3C)nc3ccccc32)cc1)C(=O)O` (centres unmarked) [Compound 4, 2-(4-{2-[3-Methyl-4-(2,2,2-trifluoro-ethoxy)-pyridin-2-ylmethanesulfinyl]-benzimidazole-1-sulfonyl}phenoxy)butric acid], for which the “% inhibition of gastric acid secretion between 3-5 hours after administration” value in data set [4] (20 μmole/kg) is 60.9 ± 25.5%. In data set [6], the “Half-life of hydrolysis at pH 7 of the prodrug to the corresponding proton pump inhibitory drug” value is reported as “over 50 hours”.

As to `COc1ccc2c(c1)nc([S+]([O-])Cc1ncc(C)c(OC)c1C)n2S(=O)(=O)c1ccc(OCC(=O)[O-])cc1.[Na+]` (centres unmarked) [Compound 9, {4-[5-methoxy-2-(4-methoxy-3,5-dimethyl-pyridin-2-ylmethanesulfinyl)-benzimidazole-1-sulfonyl]-phenoxy}-acetic acid sodium salt], the figures for the solubility in data set [1] and in data set [2] were above 0.1 mg/mL and above 30 mg/mL, respectively. Besides, the inhibition in vivo at 40 µmol/kg in data set [4] is 74.4 ± 25.1%.
